Consider 98 compounds from PubChem BioAssay AID540268 (Broad Institute, 2011).

SMILES strings stand for the structures. Active and inactive are the calls of the source. How the calls were made is not given here. A value given as a limit tells only on which side of the number the result lay.

The nature of the assay: growth inhibition of yeast carrying parasite Hsp90, dose response, anti-malarial Hsp90 inhibitor project, ATP luminescence, 48 h, cherry-picked samples (AID 540268).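 On activity change, negative = inhibition: 0% = neutral control wells and -100% = positive control wells.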 The note with it: yeast expressing the parasite Hsp90, ATP luminescence; for activity change, negative = inhibition: at 26 µM (top of the series).

Regarding `COc1ccc(C(=O)/C=C2\C(=O)Nc3ccc(Br)cc32)cc1`, the AC50 was 2.22 µM.

`O=C1C=CC(=O)N1c1ccc(OC(F)F)cc1`: the AC50 was 0.421 µM. On the same count and under the same terms, in the case of `CC1=C/C(=N\OS(=O)(=O)c2ccccc2)C(C)=CC1=O` it was 0.597 µM; in that of `CCCCCCCCn1sccc1=O`, 0.871 µM; in that of `COc1cccc(/C=C2/CCC(CN(C)C)C2=O)c1` (stereo not drawn), 7.93 µM.

Consider `CC1(c2nnc(Cc3ccccc3)o2)CC(c2ccccc2[N+](=O)[O-])=NO1` (stereo not drawn), for which the concentration at half-maximal activity (AC50) was 1.77 µM. The same measure, in the same setting: in the case of `CC1=NNC(=O)/C1=C\c1cn(-c2ccccc2)nc1-c1cccs1` it was 4.87 µM; in that of `CC1=CC(=O)C=C(C)C1=NOS(=O)(=O)c1ccccc1`, 1.4 µM. The same measure, in the same setting: in the case of `O=C(CCSc1ccc(Br)cc1)c1ccc(O)cc1` it was 3.64 µM; in that of `O=[N+]([O-])c1ccc(Sc2cccc[n+]2[O-])c2nonc12`, 6.88 µM.

As for `CCN(CC)C1CC(=O)N(c2ccc(Br)cc2)C1=O` (stereo not drawn), the concentration at half-maximal activity (AC50) is 2.97 µM. Still for that read-out and setting: in the case of `CC(=NNC(=S)Nc1cccc(Cl)c1)c1ccccn1` it was 16.6 µM; in that of `Oc1ccc2ccccc2c1N=Nc1ccccn1`, 2.66 µM. Still for that read-out and setting: in the case of `CCOC(=O)c1sc(-c2ccc(C(F)(F)F)cc2)nc1O` it was 2.59 µM. Still for that read-out and setting: in the case of `COc1ccc(OC)c(NC(=O)c2nc(S(=O)(=O)Cc3ccccc3)ncc2Cl)c1` it was 4.3 µM; in that of `O=C(Nc1nc(-c2ccccn2)cs1)c1ccc(-c2ccccc2F)o1`, 8.88 µM. As for `COc1cccc(/C=C/c2ccc3cccc(O)c3n2)c1`, the AC50 is less than 0.195 µM.

Regarding `Cc1ccc(C(C)C)c(OCc2ccc(C(=O)N/N=C/c3cccc(O)c3O)cc2)c1`, the concentration at half-maximal activity (AC50) is 1.62 µM. The same measure, in the same setting: in the case of `Clc1ccc(COC(Cn2ccnc2)c2ccc(Cl)cc2Cl)cc1` (stereo not drawn) it was less than 0.195 µM. With `CCc1ccc(OCC(=O)NNC(=S)NC(=O)C2CC2)c(Br)c1`, the AC50 was 1.12 µM. On the same count and under the same terms, in the case of `CCC(=O)OCOc1ccc(/C=C2/CCC(CN(C)C)C2=O)cc1` (stereo not drawn) it was 2.89 µM; in that of `CCOc1cc(S(=O)(=O)NC2CCCCCC2)ccc1F`, 5.56 µM; in that of `Cc1ccc(C2=NC(C)(C)N=C2SCC(=O)Nc2ccc(Cl)cc2)cc1`, 26.2 µM. Consider `COc1ccc(NC(=O)/C(Cl)=C(/Cl)S(=O)Cc2ccccc2)cn1` (stereo not drawn), for which the half-maximal activity concentration (AC50) was 2.54 µM.

With `CCC(=O)OC1(C)C(=O)C2=COC(c3ccc(OC)cc3)=CC2=C(Br)C1=O` (stereo not drawn), the AC50 was 2.81 µM. As to `CC1C/C(=C/c2ccncc2)C(=O)/C(=C/c2ccncc2)C1` (stereo not drawn), the AC50 was 2.83 µM. As for `CC(C)CC(=O)NC(c1cccs1)c1ccc2cccnc2c1O` (stereo not drawn), the AC50 was 2.72 µM.

On to `O=C1CCCN1CCC1CCN(C2CC(=O)N(c3ccc(Cl)cc3)C2=O)CC1` (stereo not drawn), for which the AC50 was 4.79 µM.

As to `Cc1ccc(N=Cc2c(C)[nH]n(-c3nc4ccccc4[nH]3)c2=O)cc1`, the half-maximal activity concentration (AC50) is 2.4 µM.

For the compound `COc1cc(/C=C/C(=O)c2ccc([N+](=O)[O-])o2)ccc1O`, the AC50 was 2.02 µM. Same read-out and setting: in the case of `Cn1ncc2c(Nc3cccc(Cl)c3)nc(Nc3cccc(Cl)c3)nc21` it was 2.82 µM; in that of `Cc1c(Cl)cccc1N=Cc1ccc([N+](=O)[O-])s1`, 8.3 µM; in that of `O=C(/C=C/c1ccc([N+](=O)[O-])cc1)c1ccccc(=O)c1O`, 1.04 µM. Same read-out and setting: in the case of `O=C1Nc2ccc(Br)cc2/C1=C/C(=O)c1ccccc1` it was 1.42 µM; in that of `CN(C)/C=C/C(=O)c1ccc(Oc2ccccc2)cc1`, 3.92 µM; in that of `CCCNC(=O)c1nnsc1S(=O)c1ccc(Cl)cc1` (stereo not drawn), 1.53 µM.

Take `O=C(N/N=C/c1ccc([N+](=O)[O-])o1)c1sc2ccccc2c1Cl`: the activity change, negative = inhibition was 18.4% (inactive). For the compound `O=C(Nc1cccc(C(F)(F)F)c1)Oc1ccc(Cl)c2cccnc12`, the concentration at half-maximal activity (AC50) is 4.93 µM.

Take `O=C1C=CC(=O)N1Cc1ccccc1`: the activity change, negative = inhibition is 21.3% (inactive).

As for `O=C(c1ccc(-c2ccccc2)cc1)C1CCCN(C(=O)c2cncs2)C1` (stereo not drawn), the AC50 was 2.72 µM.

`CC1=NN(c2nc3ccccc3[nH]2)C(=O)/C1=C/N(C)C`: the half-maximal activity concentration (AC50) was 2.23 µM. For `COc1ccc(-c2nnc(SCC(=O)Oc3ccc(C)cc3)o2)cc1`, the concentration at half-maximal activity (AC50) was 2.02 µM. Still for that read-out and setting: in the case of `O=C(c1ccc(-c2ccccc2)c(F)c1)C1CCCN(C(=O)c2cncs2)C1` (stereo not drawn) it was 8.42 µM. The same measure, in the same setting: in the case of `Cc1nn2c(NCc3ccccn3)cc(C(C)(C)C)nc2c1-c1ccccc1` it was 3.02 µM. `CC1(C)N=C(SCC(=O)Nc2ccc(Cl)cc2)C(c2ccc(Cl)cc2)=N1`: the AC50 was 8.73 µM. On the same count and under the same terms, in the case of `O=[N+]([O-])c1cc(Br)c(Nc2ccccc2)c([N+](=O)[O-])c1` it was 8.53 µM; in that of `CC(=NNC(=S)Nc1cccc(C)c1)c1ccccn1`, 4.3 µM; in that of `O=C1/C(=C/c2ccncc2)CCC/C1=C\c1ccncc1`, 4.25 µM.

For the compound `O=[N+]([O-])c1ccc(O)c(C2CCCCC2)c1`, the concentration at half-maximal activity (AC50) was 4.84 µM. For the compound `O=C(CSc1ccc(-c2ccccn2)nn1)Nc1ccccc1`, the activity change, negative = inhibition was -18.1% (inactive). For the compound `Cc1cccc(N=C2c3cc([N+](=O)[O-])ccc3-c3c2cc([N+](=O)[O-])cc3[N+](=O)[O-])c1`, the half-maximal activity concentration (AC50) is 9.02 µM. Still for that read-out and setting: in the case of `COc1ccc2c(c1)c(=Cc1ccc(N(C)C)cc1)c1cc(-c3ccccc3)[n+](C)n12` it was 6.32 µM; in that of `COc1ccc2c(c1)OC[C@H]1[C@H]2N2C(=O)c3cc(Br)ccc3NC(=O)[C@@]2(C)[C@H]1c1ccccc1`, 0.658 µM. The same measure, in the same setting: in the case of `O=C1C(F)=CC(COC(c2ccccc2)(c2ccccc2)c2ccccc2)OC1n1cc(F)c(=O)[nH]c1=O` (stereo not drawn) it was 0.718 µM. Still for that read-out and setting: in the case of `C/C(=N\Nc1ncc(Cl)cc1Cl)c1ccccn1` it was 1.8 µM; in that of `Nc1cccc(Oc2c(F)c(F)c(Oc3cccc(N)c3)c(F)c2F)c1`, 9.03 µM; in that of `CC(C)N1CCN(c2ccc(OCC3COC(Cn4cncn4)(c4ccc(Cl)cc4Cl)O3)cc2)CC1` (stereo not drawn), 1.12 µM. As to `COc1ccc(-c2nn(-c3ccccc3)cc2C(=O)N2CCN(S(=O)(=O)c3ccccc3[N+](=O)[O-])CC2)cc1`, the AC50 is 4.14 µM.

As to `CC(C)(C)C(=O)NC(=S)NNC(=O)c1sc2ccccc2c1Cl`, the concentration at half-maximal activity (AC50) is 7.72 µM. For the compound `O=C1C2C3C=CC(C3)C2C(=O)N1CN(Cc1ccccc1)CN1C(=O)C2C3C=CC(C3)C2C1=O` (stereo not drawn), the half-maximal activity concentration (AC50) was 16.6 µM.

For the compound `Oc1c(C(c2ccccc2)N2CCOCC2)ccc2ccccc12` (stereo not drawn), the concentration at half-maximal activity (AC50) was 6.53 µM. Same read-out and setting: in the case of `COc1ccccc1NS(=O)(=O)c1cc(C(=O)N2CC(C)CC(C)C2)ccc1C` (stereo not drawn) it was 5.81 µM; in that of `CC1=CC2C(C(O)CC3(C)C2CC(C)C32OCOC23COCO3)C2(C)C/C(=C\O)C(=O)C=C12` (stereo not drawn), 3.13 µM. On the same count and under the same terms, in the case of `O=C(Nc1nc(-c2ccccc2)c(-c2ccccc2)o1)c1ccc(F)cc1` it was 8.21 µM. On to `CCCCCCCCCCOC(=O)Cn1c(COc2ccc(C)cc2)[n+](C)c2ccccc21`, for which the AC50 was 25.8 µM.

`CC1=C/C(=N\OS(=O)(=O)c2ccccc2)C(C(C)C)=CC1=O`: the AC50 was 0.827 µM. On the same count and under the same terms, in the case of `COc1ccccc1C(=O)Nc1nc2ccccc2[nH]1` it was 1.22 µM. On the same count and under the same terms, in the case of `Cc1occc1-c1nnc(-c2cc([N+](=O)[O-])cc([N+](=O)[O-])c2)o1` it was 2.4 µM; in that of `Clc1ccccc1CN(Cc1ccco1)Cc1nnnn1C1CCCC1`, 9.49 µM; in that of `COC(=O)[C@@H]1[C@@H](C#N)C2(c3ccccc3-c3ccccc32)N(c2ccc(Cl)cc2)N1C#N`, 2.81 µM. Same read-out and setting: in the case of `COc1cccc2c1C(=O)c1c(O)c3c(c(O)c1C2=O)CC(O)(C(C)=O)CC3OC1CC(N(C)C)C(O)C(C)O1` (stereo not drawn) it was 1.58 µM.

For the compound `c1ccc(-c2nnc(-c3ccccn3)nc2NC2CCCCC2)cc1`, the AC50 is 0.393 µM. The same measure, in the same setting: in the case of `CCCCCCCCCCOC(=O)Cn1c(COc2ccc(Cl)cc2)[n+](C)c2ccccc21` it was 4.25 µM. Consider `CC(=O)N1N=C(c2ccccc2)OC1c1ccc([N+](=O)[O-])s1` (stereo not drawn), for which the AC50 was 8.65 µM. On the same count and under the same terms, in the case of `COc1cccc(/C=N/Nc2ncc(C(F)(F)F)cc2Cl)c1O` it was 4.33 µM; in that of `CC(=O)N(C1=C(Cl)C(=O)c2ccccc2C1=O)C1CCCCC1`, less than 0.195 µM; in that of `CC(C)(C)c1ccc(C(=O)CC(Sc2ccc(Cl)cc2)C(=O)O)cc1` (stereo not drawn), 7.29 µM.

Regarding `Cc1cccc(C(=O)NC(=S)NNC(=O)Cc2ccccc2)c1`, the AC50 is 4.34 µM.

Regarding `COC(=O)c1ccc(N2C(=O)CC(N(C)Cc3ccccc3)C2=O)cc1` (stereo not drawn), the concentration at half-maximal activity (AC50) was 8.53 µM. Take `COc1cc(/C=N/O)cc(Br)c1OCc1cccc(Cl)c1`: the AC50 was 8.2 µM.

As for `O=C1C=CC(=O)N1c1ccc2c(c1)Cc1cc(F)ccc1-2`, the AC50 is less than 0.195 µM. On the same count and under the same terms, in the case of `O=Nc1c(O)c2ccccc2c2ccccc12` it was 1.57 µM; in that of `[O-][n+]1cccc2c(Br)cc(Br)c(O)c21`, 3.55 µM.

As to `O=C1C(Cl)=C(Oc2ccccc2)C(=O)c2ccccc21`, the concentration at half-maximal activity (AC50) was less than 0.195 µM.

On to `O=c1c2ccccc2sn1-c1ccccc1`, for which the half-maximal activity concentration (AC50) was 9.19 µM.

On to `Clc1ccc(CCC(Cn2ccnc2)Sc2c(Cl)cccc2Cl)cc1` (stereo not drawn), for which the concentration at half-maximal activity (AC50) is less than 0.195 µM. Same read-out and setting: in the case of `O=[N+]([O-])c1cc(Cl)c(O)c2ncccc12` it was 1.81 µM; in that of `COc1ccc(N(C(=O)c2ccncc2)S(=O)(=O)c2ccc(Cl)cc2)cc1`, 0.562 µM. Same read-out and setting: in the case of `O=C(Oc1c(Cl)cc(Cl)c2cccnc12)c1ccco1` it was 0.696 µM. On the same count and under the same terms, in the case of `Cc1ccc(NS(=O)(=O)c2ccc(N3CCN(c4ccc(O)cc4)CC3)c([N+](=O)[O-])c2)c(C)c1` it was 5.7 µM; in that of `CCN1C/C(=C/c2cccc([N+](=O)[O-])c2)C(=O)/C(=C/c2cccc([N+](=O)[O-])c2)C1`, 3.22 µM; in that of `O=C1C=C(c2cccs2)C[C@H](c2ccccc2)[C@H]1n1nnc([N+](=O)[O-])n1`, 11.8 µM. `O=C(O)c1cn(-c2ccc(N3CCCC3)c(F)c2)c2c(F)c(F)c(F)cc2c1=O`: the half-maximal activity concentration (AC50) was 4.36 µM.

For `CC1CCCCC1NC(=O)/C(C#N)=C/c1ccccc1F` (stereo not drawn), the concentration at half-maximal activity (AC50) was 0.87 µM. The same measure, in the same setting: in the case of `COc1ccc(N=Nc2ccc(O)c3ncccc23)cc1` it was 4.61 µM.

For `COc1ccc(OC)c(N2C(=O)NC(=O)/C(=C\c3ccc([N+](=O)[O-])s3)C2=O)c1`, the AC50 was 5.48 µM.

Take `CCOC(=O)C1=C(Cc2ccc(Cl)cc2)C(=O)c2ccccc2C1=O`: the activity change, negative = inhibition was -104% (inactive). Regarding `O=[N+]([O-])c1cc(/C=N/O)ccc1Oc1ccccc1Cl`, the half-maximal activity concentration (AC50) was 2.86 µM.

The term AC50 denotes the concentration at which the activity in the assay is half-maximal.
